Results as given in ChEMBL document CHEMBL5233217, “Modification of 7-piperazinylquinolone antibacterials to promising anticancer lead compounds: Synthesis and in vitro studies” (Eur J Med Chem, 2020).

How the values were obtained:
Assay type in all cases: functional, cell-based
A549 = test: Anticancer activity against human A549 cells assessed as reduction in cell viability incubated for 72 hrs by MTT assay; conditions: A549, 72 h
HL-60 = test: Anticancer activity against human HL-60 cells assessed as reduction in cell viability incubated for 72 hrs by MTT assay; conditions: HL-60, 72 h
HeLa = test: Anticancer activity against human HeLa cells assessed as reduction in cell viability incubated for 72 hrs by MTT assay
SK-MEL3 = test: Anticancer activity against human SK-MEL3 cells assessed as reduction in cell viability incubated for 72 hrs by MTT assay; conditions: SK-MEL3, 72 h
MCF7 = test: Anticancer activity against human MCF7 cells assessed as reduction in cell viability incubated for 72 hrs by MTT assay; conditions: MCF7, 72 h
A-431 = test: Anticancer activity against human A-431 cells assessed as reduction in cell viability incubated for 72 hrs by MTT assay; conditions: A-431, 72 h
EJ = test: Anticancer activity against human EJ cells assessed as reduction in cell viability incubated for 72 hrs by MTT assay
KB = test: Anticancer activity against human KB cells assessed as reduction in cell viability incubated for 72 hrs by MTT assay
SW480 = test: Anticancer activity against human SW480 cells assessed as reduction in cell viability incubated for 72 hrs by MTT assay; conditions: SW480, 72 h

SMILES | IC50 (A549) [nM] | IC50 (HL-60) [nM] | IC50 (HeLa) [nM] | IC50 (SK-MEL3) [nM] | IC50 (MCF7) [nM] | IC50 (A-431) [nM] | IC50 (KB) [nM] | IC50 (SW480) [nM] | IC50 (EJ) [nM]
CCn1cc(C(=O)O)c(=O)c2cc(F)c(N3CCN(CC(=O)c4ccc(Cl)s4)CC3)nc21 | – | – | – | < 10000 | < 10000 | < 10000 | < 10000 | < 10000 | < 10000
CCn1cc(C(=O)O)c(=O)c2cc(F)c(N3CCN(C/C(=N/O)c4ccc(Cl)s4)CC3)cc21 | – | – | – | < 10000 | < 10000 | < 10000 | < 10000 | < 10000 | < 10000
O=C(O)c1cn(C2CC2)c2cc(N3CCN(C/C(=N/O)c4ccc(Cl)s4)CC3)c(F)cc2c1=O | – | – | – | < 10000 | < 10000 | < 10000 | < 10000 | < 10000 | < 10000
N=C(NS(=O)(=O)c1cccc(Cl)c1)N1CCN(c2cc3c(cc2F)c(=O)c(C(=O)O)cn3C2CC2)CC1 | 71 | 43 | 32 | – | – | – | – | – | –
N=C(NS(=O)(=O)c1ccc(Cl)cc1)N1CCN(c2cc3c(cc2F)c(=O)c(C(=O)O)cn3C2CC2)CC1 | 71 | 43 | 32 | – | – | – | – | – | –
CCn1cc(C(=O)O)c(=O)c2cc(F)c(N3CCN(C(=N)NS(=O)(=O)c4ccc(C(F)(F)F)cc4)CC3)cc21 | 71 | 43 | 32 | – | – | – | – | – | –
O=C(CN1CCN(c2cc3c(cc2F)c(=O)c(C(=O)O)cn3C2CC2)CC1)c1ccc(Cl)s1 | – | – | – | < 10000 | < 10000 | < 10000 | < 10000 | < 10000 | < 10000
CCn1cc(C(=O)O)c(=O)c2cc(F)c(N3CCN(C/C(=N/O)c4ccc(Cl)s4)CC3)nc21 | – | – | – | < 10000 | < 10000 | < 10000 | < 10000 | < 10000 | < 10000
CCn1cc(C(=O)O)c(=O)c2cc(F)c(N3CCN(C(=N)NS(=O)(=O)c4ccccc4)CC3)cc21 | 71 | 43 | 32 | – | – | – | – | – | –
CCn1cc(C(=O)O)c(=O)c2cc(F)c(N3CCN(C(=N)NS(=O)(=O)c4ccc(Cl)cc4)CC3)cc21 | 71 | 43 | 32 | – | – | – | – | – | –
CCn1cc(C(=O)O)c(=O)c2cc(F)c(N3CCN(CC(=O)c4ccc(Cl)s4)CC3)cc21 | – | – | – | < 10000 | < 10000 | < 10000 | < 10000 | < 10000 | < 10000
Cc1ccc(S(=O)(=O)NC(=N)N2CCN(c3cc4c(cc3F)c(=O)c(C(=O)O)cn4C3CC3)CC2)cc1 | 71 | 43 | 32 | – | – | – | – | – | –

More lines, in order of falling IC50 (A549), values ahead:

IC50 (A549) [nM] | IC50 (HL-60) [nM] | IC50 (HeLa) [nM] | IC50 (SK-MEL3) [nM] | IC50 (MCF7) [nM] | IC50 (A-431) [nM] | IC50 (KB) [nM] | IC50 (SW480) [nM] | SMILES | IC50 (EJ) [nM]
71 | 43 | 32 | – | – | – | – | – | N=C(NS(=O)(=O)c1ccc(C(F)(F)F)cc1)N1CCN(c2cc3c(cc2F)c(=O)c(C(=O)O)cn3C2CC2)CC1 | –
71 | 43 | 32 | – | – | – | – | – | CCn1cc(C(=O)O)c(=O)c2cc(F)c(N3CCN(C(=N)NS(=O)(=O)c4cccc(Cl)c4)CC3)cc21 | –
71 | 43 | 32 | – | – | – | – | – | N=C(NS(=O)(=O)c1ccccc1)N1CCN(c2cc3c(cc2F)c(=O)c(C(=O)O)cn3C2CC2)CC1 | –
71 | 43 | 32 | – | – | – | – | – | CCn1cc(C(=O)O)c(=O)c2cc(F)c(N3CCN(C(=N)NS(=O)(=O)c4ccccc4C(F)(F)F)CC3)cc21 | –
71 | 43 | 32 | – | – | – | – | – | CCn1cc(C(=O)O)c(=O)c2cc(F)c(N3CCN(C(=N)NS(=O)(=O)c4ccc(C)cc4)CC3)cc21 | –
71 | 43 | 32 | – | – | – | – | – | N=C(NS(=O)(=O)c1ccccc1C(F)(F)F)N1CCN(c2cc3c(cc2F)c(=O)c(C(=O)O)cn3C2CC2)CC1 | –
71 | 43 | 32 | – | – | – | – | – | N=C(NS(=O)(=O)c1ccccc1Cl)N1CCN(c2cc3c(cc2F)c(=O)c(C(=O)O)cn3C2CC2)CC1 | –
71 | 43 | 32 | – | – | – | – | – | CCn1cc(C(=O)O)c(=O)c2cc(F)c(N3CCN(C(=N)NS(=O)(=O)c4ccccc4Cl)CC3)cc21 | –
